Experimental data: patent US12564622B2, “Preventing cytokine release syndrome” (priority 2017, dated 2026)
Several values for one entry are separate records, joined by “and”; a condition that tells them apart may be missing. Equal values may be shown once.

Assays:
[1] = system: C. novyi-NT therapy-induced toxicity in mice bearing large subcutaneous CT26 tumors; assay: C. novyi-NT therapy of large subcutaneous CT26 tumors (therapy-induced toxicity); type: in vivo, mouse (BALB/c); conditions: CT26 tumor-bearing mice injected with parental C. novyi-NT spores, with the indicated agent
Experimental: ANP concentrations in the supernatant of ANP-C. novyi-NT culture and in mouse plasma were measured by an Elisa kit from Ray Biotech (EIAR-ANP-1) that recognizes both human and mouse ANP. ANP in the supernatant of ANP-C. novyi-NT culture were shown biological activities as described elsewhere (Lofton et al., 1990 Biochem. Biophys. Res. Comm., 172:793-9). Briefly, bacterial supernatants were applied to cultured bovine aortic endothelial cells (BAOEC, Cell Applications Inc.) for 3 minutes. cGMP concentrations were then measured in BAOEC lysates by the Direct cGMP Elisa Kit from Enzo following the manufacture's instruction.
The colon cancer cell line CT26 was injected subcutaneously into the right flank of six to eight week old female Balb/C mice as described elsewhere (Qiao et al., 2011 Oncotarget, 2:59-68). Tumor sizes were measured with a caliper and calculated as ½*L*W*H as described elsewhere (Tomayko et al., 1989 Can. Chemother. Pharmacol., 24:148-54). When tumors reached 600-900 mm^3 after about two weeks, 12×10^6 spores of C. novyi-NT or ANP-C. novyi-NT at 3×10^6/μl were injected intratumorally into 4 central parts of the tumor with a 32 G Hamilton syringe needle. The bacteria typical germinated in the tumors within 24 hours, turning them necrotic. Hydration of the mice was supported by daily subcutaneous injections of […] saline. Human ANP (Sigma) was dissolved in saline, loaded in mini-osmotic pumps (ALZET) with a release rate of 12 μg/day and implanted subcutaneously in the back of mice 12 hours before the spore injection. Pumps loaded with saline served as controls. Metyrosine was dissolved in PBS and injected IP at 60 mg/kg/day for three days before the C. novyi injection to deplete catecholamines in storage. Two hours after the spore injection, 60 mg/kg of metyrosine was injected intraperitoneally (IP). For each of the next three days, IP injections of metyrosine at 30 mg/kg were administered. Control groups were injected with PBS at the same time points.
Blood samples were collected into tubes containing 5 mM EDTA and 4 mM sodium metabisulfite after puncturing the facial vein or (terminally) by cardiac puncture. Subsequently, the samples were centrifuged and the plasmas were stored at −80° C. prior to analysis. Catecholamines (dopamine, norepinephrine and epinephrine) were measured using the 3-CAT Research ELISA kit from Labor Diagnostika Nord GmbH/Rocky Mountain Diagnostics. Cytokines were measured using Luminex assays based on Millipore Mouse and Human Cytokine/Chemokine panels.
ANP concentrations in the supernatant of ANP-C. novyi-642 NT culture and in mouse plasma were measured with an Elisa kit from Ray Biotech (EIAR-ANP-1) that recognizes both human and mouse ANP. […] Briefly, bacterial supernatants were applied to cultured bovine aortic endothelial cells (BAOEC, Cell Applications Inc.) for 3 minutes. cGMP concentrations were then measured in BAOEC lysates by the Direct cGMP Elisa Kit from Enzo following the manufacture's instruction.
The colon cancer cell line CT26 was injected subcutaneously into the right flank of six to eight weeks old female Balb/C mice as described elsewhere (see, e.g., Qiao et al. 2011 Oncotarget 2:59-68). Tumor sizes were measured with a caliper and calculated as ½*L*W*H as described elsewhere (see, e.g., Tomayko et al. 1989 Cancer Chemother Pharmacol 24:148-154). When tumors reached 600-900 mm^3 after about two weeks, 12×10^6 spores of C. novyi-NT or ANP-C. novyi-NT at 3×10^6/μl were injected intratumorally into 4 central parts of the tumor with a 32 G Hamilton syringe needle. The bacteria typical germinated in the tumors within 24 hours, turning them necrotic. Hydration of the mice was supported by daily subcutaneous injections of 500 μl saline. Human ANP (Sigma) was dissolved in saline, loaded in mini-osmotic pumps (ALZET) with a release rate of 12 μg/day and implanted subcutaneously in the back of mice 12 hours before the spore injection. Pumps loaded with saline served as controls. […]

[2] = system: co-culture of hCART19 and Raji cells; assay: In vitro co-culture of Raji and hCART19 cells; type: cell-based, human; conditions: co-culture stimulated with epinephrine 15 ng/ml; CHX 10 μg/ml
Source text: Human CD19scFv-CD28-4-1BB-CD3ζ CAR-T cells (PM-CAR1003) were purchased from Promab Biotechnologies and maintained less than 7 days in AIM-V medium (GIBCO) supplemented with 300 IU/ml of hIL2 (Peprotech), 5% FBS and antibiotics (Car-T medium).

[3] = system: LPS-injected BALB/c mice; type: in vivo, mouse (BALB/c); conditions: for mortality: LPS-treated mice, adrenoceptor blockers (α1, α2, β1, β2); for disease course (mortality, catecholamines, IL-6, TNF-α, MIP-2, KC) versus LPS only: catecholamine by subcutaneous osmotic pump plus sublethal dose of LPS
Experimental: LPS from Escherichia coli 0111:B4 was formulated as a 10 mg/ml solution in water and stored in −80° C. LPS was injected intraperitoneally at a dose of 3.5 mg/kg. […] Human ANP (Sigma) was dissolved in saline, loaded in mini-osmotic pumps (ALZET) with a release rate of 12 μg/day and implanted subcutaneously in the back of mice 12 hours before the LPS injection. Mice implanted with pumps loaded with saline served as controls. […] […] The control groups were injected with PBS. […] Hydration of mice was supported by daily subcutaneous injection of 0.5 ml saline.
LPS from Escherichia coli 0111:B4 was formulated as a 10 mg/ml solution in water and stored in −80° C. In Balb/C mice, LPS was injected intraperitoneally at a lethal dose of 3.5 mg/kg. […] In experiments with catecholamine pumps, a sublethal dose with 15-35% death rate was optimized in Balb/C mice. In TH+/+ and TH^ΔLysM mice with C57BL/6 background, a lethal dose was optimized at 5 mg/kg. Human ANP (Sigma) was dissolved in saline, loaded in mini-osmotic pumps (ALZET) with a release rate of 12 μg/day and implanted subcutaneously in the back of mice 12 hours before the LPS injection. Mice implanted with pumps loaded with saline served as controls. Metyrosine was freshly dissolved in PBS and injected IP at the indicated doses for three days prior to the LPS treatment. One hour before the LPS injection, metyrosine was injected into the lower abdomen contralateral to the side of LPS injection. The control groups were injected with PBS. For the following 3 days, metyrosine was injected IP at reduced indicated doses. Hydration of mice was supported by daily subcutaneous injection of 0.5 ml saline.

[4] = incubation in media for 24 hours at 37° C.
[5] = system: polymicrobial peritoneal sepsis induced by CLP; assay: Cecal ligation and puncture (CLP) sepsis; type: in vivo, mouse (C57BL/6); conditions: antibiotic alone, from 20 hours after CLP
Experimental: (§1) Cecal ligation and puncture (CLP) was performed as described elsewhere (Rittirsch et al., 2009 Nature Protocols, 4:31-6). Briefly, six-to-eight week old female C57BL/6 mice were anesthetized and following abdominal incision, the cecum was ligated at about 14 the distance from the luminal entry to its tip. The ligated cecum was punctured through and through with a 22 G needle at ½ and ¾ the distance from the luminal entry to its tip. A small amount of the cecal content was gently pushed out of the four openings into the peritoneum. Subsequently, the abdominal muscles were sutured and the skin was closed with two staples. Five hundred microliters of saline were immediately injected subcutaneously to the mice. For the groups treated with antibiotics, imipenem (Sigma) was injected subcutaneously at 25 mg/kg starting from 20 hours after CLP, with a schedule of twice a day on day one and once a day thereafter for 10 days. Human ANP (Sigma) was dissolved in saline, loaded in mini-osmotic pumps (ALZET) with a release rate of 12 μg/day and implanted subcutaneously in the back of mice 12 hours before the CLP, with pumps loaded with saline serving as controls. Metyrosine was freshly dissolved in PBS and injected IP at 60 mg/kg/day for three days before the CLP. Twenty minutes before the CLP, metyrosine was injected at 60 mg/kg IP into the right side. The control groups were injected with PBS. For the following 4 days, metyrosine was injected at 30 mg/kg/day IP into the right side. Hydration of mice was supported by daily subcutaneous injection of 0.5 ml saline.
as §1, with “CLP” for “Cecal ligation and puncture (CLP)”, “(see, e.g., Rittirsch” for “(Rittirsch”, “2008 Rev Immunol 8:776-787).” for “2009 Nature Protocols, 4:31-6).”, “6-8 weeks” for “six-to-eight week”, “¼” for “14”, “days.” for “days. Human ANP (Sigma) was dissolved in saline, loaded in mini-osmotic pumps (ALZET) with a release rate of 12 μg/day and implanted subcutaneously in the back of mice 12 hours before the CLP, with pumps loaded with saline serving as controls.”

SMILES: Cc1ccc2nc(NCCN)c3ncc(C)n3c2c1 [BMS-345541]
- effect on survival (words) [1]: no significant improvement in survival
- effect on survival (words) ([1]; listed as BMS345541): did not improve survival

SMILES: C[C@@H]1C[C@@H]([C@H](O)CC2CC(=O)NC(=O)C2)C(=O)[C@@H](C)C1 [CHX, Cycloheximide]
- increase of catecholamines and cytokines (TNF-α, MIP-1α, IFN-γ, GM-CSF) [2]: greatly suppressed

SMILES: Cc1ccc(OCC(O)C(C)NC(C)C)c2c1CCC2 (stereo not shown) [ICI 118551]
- mortality [3]: did not reduce mortality

SMILES: COC1(C2=NCCN2)COc2ccccc2O1 (stereo not shown) [RX 821002]
- mortality [3]: did not reduce mortality

SMILES: NCCc1ccc(O)c(O)c1 [dopamine]
- disease course (mortality, catecholamines, IL-6, TNF-α, MIP-2, KC) versus LPS only [3]: absent

SMILES: CNC[C@H](O)c1ccc(O)c(O)c1 [epinephrine, (−)-epinephrine]
- disease course (mortality, catecholamines, IL-6, TNF-α, MIP-2, KC) versus LPS only [3]: earlier onset and exacerbated disease course
- animal survival ([3]; mouse, in vivo): no effect on animal survival
- cytokine release ([3]; mouse, in vivo): moderately stimulate cytokine release
- stability in media [4]: all detectable epinephrine was degraded

SMILES: C[C@@H](O)[C@H]1C(=O)N2C(C(=O)O)=C(SCCN=CN)C[C@H]12 [imipenem]
- mice that died after CLP [5]: 88% and > 90%

SMILES: COCCc1ccc(OCC(O)CNC(C)C)cc1 (stereo not shown) [metoprolol]
- mortality [3]: did not reduce mortality

SMILES: Cc1ncc([N+](=O)[O-])n1CCO [metronidazole]
- effect on survival (words) [1]: did not protect animals from sepsis

SMILES: NC[C@H](O)c1ccc(O)c(O)c1 [norepinephrine]
- disease course (mortality, catecholamines, IL-6, TNF-α, MIP-2, KC) versus LPS only [3]: less pronounced

SMILES: COc1cc2nc(N3CCN(C(=O)c4ccco4)CC3)nc(N)c2cc1OC [prazosin]
- production of catecholamines and cytokines ([3]; 24 hours after LPS, α1 blockade): suppressed the production of catecholamines and cytokines
- mortality [3]: substantially reduced mortality
